Among the data in PubChem BioAssay AID651733 (The Scripps Research Institute Molecular Screening Center, 2012) are IC50 values, retold here.

Usually IC50 stands for the concentration needed to halve the response being measured. Usually pIC50 stands for −log10 of the IC50, conventionally taken in molar units.

pIC50: −log10 of the molar value. Activity calls are given as the source filed them. How the calls were made is not given here.

Sequence of Perilipin-5 (Homo sapiens) + 1-acylglycerol-3-phosphate O-acyltransferase ABHD5 (Homo sapiens) (Q00G26 whole entry, looked up, the tested form may be a part): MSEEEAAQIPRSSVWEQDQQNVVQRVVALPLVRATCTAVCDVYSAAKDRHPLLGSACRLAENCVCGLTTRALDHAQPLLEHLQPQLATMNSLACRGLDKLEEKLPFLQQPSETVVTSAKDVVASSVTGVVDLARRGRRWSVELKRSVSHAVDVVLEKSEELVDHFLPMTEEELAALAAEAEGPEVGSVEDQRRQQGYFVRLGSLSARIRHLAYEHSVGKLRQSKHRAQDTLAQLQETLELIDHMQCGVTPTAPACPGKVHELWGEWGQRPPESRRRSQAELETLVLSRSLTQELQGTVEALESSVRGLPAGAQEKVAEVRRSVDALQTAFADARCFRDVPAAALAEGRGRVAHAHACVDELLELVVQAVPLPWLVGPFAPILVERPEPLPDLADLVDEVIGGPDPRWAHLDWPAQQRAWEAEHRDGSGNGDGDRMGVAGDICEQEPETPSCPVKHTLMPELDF
Sequence of Perilipin-5 (Homo sapiens) + 1-acylglycerol-3-phosphate O-acyltransferase ABHD5 (Homo sapiens) (Q8WTS1 whole entry, looked up, the tested form may be a part): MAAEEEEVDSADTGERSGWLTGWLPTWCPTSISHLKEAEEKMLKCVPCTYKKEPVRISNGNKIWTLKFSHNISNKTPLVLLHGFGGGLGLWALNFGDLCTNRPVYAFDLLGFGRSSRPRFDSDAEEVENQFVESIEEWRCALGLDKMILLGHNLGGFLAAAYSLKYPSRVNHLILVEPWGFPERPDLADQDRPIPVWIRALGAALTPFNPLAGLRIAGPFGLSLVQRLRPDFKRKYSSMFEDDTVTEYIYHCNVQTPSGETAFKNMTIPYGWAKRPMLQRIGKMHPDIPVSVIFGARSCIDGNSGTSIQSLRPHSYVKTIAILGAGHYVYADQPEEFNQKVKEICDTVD

This experiment concerns the target Perilipin-5 (Homo sapiens) + 1-acylglycerol-3-phosphate O-acyltransferase ABHD5 (Homo sapiens) (UniProt Q00G26+Q8WTS1). The experiment can be described thus: blockers of ABHD5 binding to perilipin-5 – cell lysate, luminescence, proteins expressed in HEK293T, dose response (AID 651733).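 Further: split Gaussia princeps luciferase complementation between ABHD5 and MLDP fusion proteins.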 Conditions: ABHD5-PLIN5 interaction.
Regarding `CC(=O)OCC1=C(C(=O)O)N2C(=O)C(NC(=O)CCn3nc(C(F)(F)F)c(Br)c3C3CC3)C2SC1` (configuration not stated), the IC50 result is “inactive”. On to `CN(C)CCCN(C(=O)CCc1ccccc1)c1nc2ccc(Cl)cc2s1`, for which the IC50 result is “inactive”. As to `CCN(CC)CCN(CC(=O)Nc1c(C)cc(C)cc1C)C(=O)c1ccccc1`, the pIC50 is 5.41. `COC(=O)c1ccc(Cn2cc(/C=C\[N+](=O)[O-])c3ccccc32)o1`: the IC50 entry was “inactive”. With `Oc1c(C(c2ccccc2)N2CCCCC2)ccc2ccccc12` (configuration not stated), the pIC50 was 5.76. Regarding `CCOC1=CC2=C(C(=O)C(Cl)=CC2=O)[C@@H]2CN(S(=O)(=O)c3ccc(C)cc3)[C@@H](c3ccccc3)[C@H]12`, the pIC50 was 5.65. Still for that read-out and setting: the value for `COc1ccc(/C=C\C(=O)CC(O)(c2ccccc2)C(F)(F)F)cc1` (configuration not stated) was 5.71; that for `O=C(/C(=C/c1ccccc1)n1cncn1)c1ccc(Cl)cc1Cl` was 5.67. With `Cc1ccc(/C(O)=C2/C(=O)C(=O)OC2c2ccc(Cl)cc2)cc1` (configuration not stated), the IC50 result was “inactive”. For `O=C(Nc1ccc2c(c1)OCCO2)C(c1ccnc2ccccc12)n1c(=O)c(-c2ccco2)nc2ccccc21` (configuration not stated), the IC50 result is “inactive”. For the compound `CCCCCNC(=O)C(c1ccc(OC)cc1)n1c(=O)c(-c2ccco2)nc2ccccc21` (configuration not stated), the pIC50 is 5.47. The same measure, in the same setting: the value for `CCCCCNC(=O)C(c1ccc(C(F)(F)F)cc1)n1c(=O)c(-c2ccco2)nc2ccccc21` (configuration not stated) was 5.46; that for `CC(C)c1nnc(NC(=O)c2nc(S(=O)(=O)Cc3ccc(F)cc3)ncc2Cl)s1` was 5.46. Consider `COc1ccc(NC(=O)c2cc3ccccc3cc2O)cc1`, for which the IC50 result was “inactive”. As to `CC(C)(C)NC(=O)C(C1CC1)n1c(=O)c(-c2ccco2)nc2ccccc21` (configuration not stated), the pIC50 was 5.15. For the compound `COc1ccc(NC(=O)C(c2ccc(OC)cc2)n2c(=O)c(-c3ccco3)nc3ccccc32)cc1` (configuration not stated), the IC50 result is “inactive”. For the compound `CC1=CC2C(C(O)CC3(C)C2CC(C)C32OCOC23COCO3)C2(C)C/C(=C\O)C(=O)C=C12` (configuration not stated), the pIC50 was 5.44.

Take `CCN(CC)CCOCCOC(=O)C1(c2ccccc2)CCCC1`: the negative logarithm of the IC50 (pIC50) was 5.66. For `CCSc1ccc2c(c1)N(CCCN1CCN(C)CC1)c1ccccc1S2`, the pIC50 is 5.23. On the same count and under the same terms, the value for `O=C(NCc1ccccc1)C(c1ccc(C(F)(F)F)cc1)n1c(=O)c(-c2ccco2)nc2ccccc21` (configuration not stated) was 5.50. Still for that read-out and setting: the value for `Cc1ccc(/C=C/C(=O)c2cc(Br)ccc2OC(=O)c2ccco2)cc1` was 6.17; that for `O=C1NC(=S)NC(=O)C12C(c1ccccc1)NC(=S)NC2c1ccccc1` (configuration not stated) was 5.41. In the case of `C#CCN(C[C@@H]1[C@@H](OC(=O)NCC2CCCCC2)[C@@H](OC(=O)NCC2CCCCC2)Cn2c(=O)ccc(=O)n21)S(=O)(=O)c1ccc(C)cc1`, the pIC50 is 5.35. Same read-out and setting: under `O=C1NC(=O)N(Cc2ccc(F)cc2)C(=O)/C1=C\C=C\c1ccco1` stands 5.64. On to `COc1ccc(NC(=O)C(c2cccc3ccccc23)n2c(=O)c(-c3ccco3)nc3ccccc32)cc1` (configuration not stated), for which the IC50 entry was “inactive”. As for `CC1CN(Cc2c(O)ccc3c2oc(=O)c2ccccc23)CC(C)O1` (configuration not stated), the pIC50 is 5.32.

Turning to `CCCCCNC(=O)C(c1ccc(C#N)cc1)n1c(=O)c(-c2ccco2)nc2ccccc21` (configuration not stated), the pIC50 is 5.18.

Consider `CCOC(=O)c1c(NC(=O)/C=C/C(=O)O)sc(C)c1-c1ccc(C(C)(C)C)cc1`, for which the pIC50 is 5.22. Still for that read-out and setting: the value for `Cc1cccc(C)c1NC(=O)C(c1ccc(C(F)(F)F)cc1)n1c(=O)c(-c2ccco2)nc2ccccc21` (configuration not stated) was 5.43. With `CCC(=O)Nc1cccc(C(=O)/C=C/c2ccccc2)c1`, the pIC50 is 5.52. Turning to `Cc1cccc(C)c1NC(=O)C(c1ccncc1)n1c(=O)c(-c2ccco2)nc2ccccc21` (configuration not stated), the IC50 result was “inactive”. Consider `O=C1/C(=C/c2cccnc2)CC/C1=C\c1cccnc1`, for which the negative-log IC50 (pIC50) is 5.37. Still for that read-out and setting: the value for `Cc1cccc(C)c1NC(=O)C(c1ccccc1F)n1c(=O)c(-c2ccco2)nc2ccccc21` (configuration not stated) was 5.25; that for `Cc1nc(-c2ccccc2)sc1C(=O)/C=C/c1ccccc1` was 5.63. Regarding `COc1ccc(-c2cc(N)n(S(=O)(=O)c3c(F)c(F)c(F)c(F)c3F)n2)cc1OC`, the IC50 entry is “inactive”.

As to `CCCCCNC(=O)C(c1cc2ccccc2o1)n1c(=O)c(-c2ccco2)nc2ccccc21` (configuration not stated), the pIC50 is 5.51. Regarding `COc1ccc(NC(=O)C(c2ccnc3ccccc23)n2c(=O)c(-c3ccco3)nc3ccccc32)cc1` (configuration not stated), the pIC50 was 5.10. On the same count and under the same terms, under `CCN(CC)CCOc1ccc(/C(=C(\Cl)c2ccccc2)c2ccccc2)cc1` stands 5.62; under `CCOC(=O)c1c(NC(C)=O)sc2c1CCC(C=O)=C2Sc1ccccc1`, 5.51; under `CC(=O)Cc1cc(O)c2ccccc2c1OC(=O)c1ccccc1`, 5.27. Same read-out and setting: under `CCCCNC(=O)Nc1ccc2c(c1)N(C)C(=O)c1ccccc1S2` stands 5.44; under `CC(C)(C)NC(=O)C(c1ccncc1)n1c(=O)c(-c2ccco2)nc2ccccc21` (configuration not stated), 5.38; under `Cc1ccc(CS(=O)(=O)c2ncc(Cl)c(C(=O)Nc3nnc(C(C)C)s3)n2)cc1`, 5.54.

For `O=C(NCc1ccccc1)C(c1cc2ccccc2o1)n1c(=O)c(-c2ccco2)nc2ccccc21` (configuration not stated), the negative-log IC50 (pIC50) is 5.31. For the compound `CC(C)(C)NC(=O)C(c1ccc(C#N)cc1)n1c(=O)c(-c2ccco2)nc2ccccc21` (configuration not stated), the pIC50 was 5.60. For `Cc1ccc(C(=O)c2coc3c2C(=O)C(=O)c2ccccc2-3)cc1`, the pIC50 was 5.21. Regarding `CCCNC(=O)Nc1ccc2c(c1)N(C)C(=O)c1ccccc1S2`, the pIC50 was 5.38. On the same count and under the same terms, under `Cc1cc(C)c(NC(=O)CN2CCN3CCCC3C2)c(C)c1` (configuration not stated) stands 5.32.

Regarding `COc1cc(/C=C/C(=O)c2ccc(Cl)s2)cc(OC)c1O`, the pIC50 is 5.19.

`CSc1nnc(NC(=O)c2nc(S(=O)(=O)Cc3ccc(C)cc3)ncc2Cl)s1`: the pIC50 is 5.41. Same read-out and setting: the value for `COc1ccccc1C=CC(=O)C=Cc1ccccc1OC` was 5.18; that for `O=C(/C(=C/O)N=Nc1ccc(Cl)cc1)c1ccncc1` was 5.03; that for `CC1(C)C2CCC(CN=C(N)CSS(=O)(=O)O)C1C2` (configuration not stated) was 5.33. Consider `O=C1NC(=O)N(c2ccccc2F)C(=O)/C1=C/c1ccc(Oc2ccc([N+](=O)[O-])cn2)cc1`, for which the pIC50 was 5.12. Consider `COc1ccc(NC(=O)C(c2ccc(C#N)cc2)n2c(=O)c(-c3ccco3)nc3ccccc32)cc1` (configuration not stated), for which the IC50 entry was “inactive”. Consider `CCOC(=O)N1CCN(C(=O)C[C@@H]2C[C@@]3(C(=O)OCC)CCC=C3N(Cc3ccc(Cl)cc3Cl)C2=O)CC1`, for which the pIC50 was 5.13. Consider `CN(C)c1ccc(Cc2cc3c(O)ccc(O)c3cc(Cc3ccc(N(C)C)cc3)c2=O)cc1`, for which the pIC50 was 5.38. The same measure, in the same setting: the value for `CC(=O)Oc1c(Cl)c(N2CCOCC2)c(OC(C)=O)c2ccccc12` was 5.09; that for `Cc1ccc(S(=O)(=O)N2C[C@H]3n4c(=O)ccc(=O)n4C[C@H](OC(=O)Nc4cccs4)[C@@]3(O)C2)cc1` was 5.06. As to `NC(=O)CCN1CCN(CCOC2Cc3cc(Cl)ccc3Sc3ccccc32)CC1` (configuration not stated), the IC50 result is “inactive”. As to `COc1ccc(C(C(=O)Nc2c(C)cccc2C)n2c(=O)c(-c3ccco3)nc3ccccc32)cc1` (configuration not stated), the pIC50 was 5.37. Consider `O=[N+]([O-])/C=C/c1cn(Cc2ccc(F)cc2)c2ccccc12`, for which the pIC50 is 5.15. Regarding `FC(F)(F)c1cccc(NC(=S)N(CCCN2CCCC2)Cc2cccn2Cc2ccc(Cl)cc2)c1`, the IC50 was > 13.3 µM (inactive). `CCC1(C)N=C(c2ccc3c(c2)OCO3)CC(c2ccccc2O)N1` (configuration not stated): the pIC50 is 5.71. The same measure, in the same setting: under `CCOC(=O)c1c(C)oc2c1c(CN1CCN(CCO)CC1)c(O)c1ccccc12` stands 5.45. As for `N#Cc1ncc(Cc2ccccc2)nc1C#N`, the IC50 entry is “inactive”. Take `CC(=O)Oc1c(Br)cc(N(C(C)=O)S(=O)(=O)c2ccccc2)c2ccccc12`: the IC50 entry is “inactive”.

As for `NC(=O)C(C(=O)/C=C/c1ccc(Cl)cc1)=C1SCCS1`, the IC50 result is “inactive”. `CCOC(=O)/C(=C\c1ccc(Cl)cc1)c1nc2sc(C)c(C)c2c(=O)[nH]1`: the pIC50 is 6.06. In the case of `Cc1ccc(SC2=C(Sc3ccc(C)cc3)C(=O)c3ccccc3C2=O)cc1`, the IC50 result is “inactive”. On the same count and under the same terms, the value for `O=C(C[n+]1cccc(CNC(=O)c2ccc(OC(F)F)cc2)c1)Nc1cccc(C(F)(F)F)c1` was “inactive”. In the case of `CC(=O)C1=C(c2cccc([N+](=O)[O-])c2)N(C(C)=O)n2c(C)nnc2S1`, the pIC50 was 5.37. As for `O=C(NCc1ccccc1)C(c1ccc(-c2ccccc2)cc1)n1c(=O)c(-c2ccco2)nc2ccccc21` (configuration not stated), the pIC50 is 5.22. Take `O=C(Nc1ccc2c(c1)OCCO2)C(c1ccccc1F)n1c(=O)c(-c2ccco2)nc2ccccc21` (configuration not stated): the IC50 entry was “inactive”. Consider `Cc1cccc(C)c1NC(=O)C(c1cccc2ccccc12)n1c(=O)c(-c2ccco2)nc2ccccc21` (configuration not stated), for which the pIC50 was 5.38.

For `CN1CCC[C@@H]1CCO[C@](C)(c1ccccc1)c1ccc(Cl)cc1`, the pIC50 is 5.16. On the same count and under the same terms, the value for `Cc1ccc2nc3cc([N+](=O)[O-])cc([N+](=O)[O-])c3cc2c1` was 5.96. The same measure, in the same setting: under `CC1=CC(C)(C)Nc2ccc(OC(=O)c3cccnc3)cc21` stands 5.49; under `O=C(NC1CCCCC1)C(c1cc2ccccc2o1)n1c(=O)c(-c2ccco2)nc2ccccc21` (configuration not stated), 5.46. Turning to `CCOc1cc(/C=C2\CCC/C(=C\c3cc(Cl)c(O)c(OCC)c3)C2=O)cc(Cl)c1O`, the pIC50 is 5.45. On to `Cc1ccc(NC(=O)CSc2nnc(-c3ccco3)c(-c3ccco3)n2)cc1`, for which the pIC50 is 5.32. Same read-out and setting: under `Cc1ccc(O)c(C(=O)/C=C/c2ccc3c(c2)OCCCO3)c1` stands 5.31; under `COc1ccc(C(C(=O)Nc2ccc3c(c2)OCCO3)n2c(=O)c(-c3ccco3)nc3ccccc32)cc1` (configuration not stated), 5.07; under `CCCCCNC(=O)C(c1cccc2ccccc12)n1c(=O)c(-c2ccco2)nc2ccccc21` (configuration not stated), 5.37. Still for that read-out and setting: under `O=C(NCc1ccccc1)C(c1cccc2ccccc12)n1c(=O)c(-c2ccco2)nc2ccccc21` (configuration not stated) stands 5.38; under `CCN1CCN(Cc2ccc(NC(=O)c3ccc(C)c(/C=C/c4cnc(Nc5cc(N6CCNCC6)nc(C)n5)cn4)c3)cc2C(F)(F)F)CC1`, 5.22.

As for `CN1C(=O)/C(=C/C=C/c2ccco2)C(=O)NC1=S`, the IC50 result is “inactive”.
